Laboratory results published in US20210268101A1 (priority 2020, published 2021).
Where “and” joins values, the source holds several entries; their conditions need not be identical. Identical values can stand only once. Like-named read-outs stand apart in the source and are kept apart here.

System: Balb/c mice
Conditions: serum 1:50
Method: Serum was obtained on days 10, 19, 28 and 42. Antibodies were assayed at a 1:50 dilution on Neutravidin assay plates coated with Biotin-NP146 Biotin-NP350 or Biotin-Ova8 (controls).

| Sequence | Responders/Group Total (n = 8) (cutoff OD 0.3 (A450), Day 10) | Responders/Group Total (n = 8) (cutoff OD 0.3 (A450), Day 19) | Responders/Group Total (n = 8) (cutoff OD 0.3 (A450), Day 28) | Responders/Group Total (n = 8) (cutoff OD 0.3 (A450), Day 42) | Responders/Group Total (n = 8) (cutoff OD 0.5 (A450), Day 10) | Responders/Group Total (n = 8) (cutoff OD 0.5 (A450), Day 19) | Responders/Group Total (n = 8) (cutoff OD 0.5 (A450), Day 28) | Responders/Group Total (n = 8) (cutoff OD 0.5 (A450), Day 42) | Responders/Group Total (n = 8) (cutoff OD 1.0 (A450), Day 10) | Responders/Group Total (n = 8) (cutoff OD 1.0 (A450), Day 28) | Responders/Group Total (n = 8) (cutoff OD 1.0 (A450), Day 42) | Responders/Group Total (n = 8) (cutoff OD 1.5 (A450), Day 10) | Responders/Group Total (n = 8) (cutoff OD 1.5 (A450), Day 28) | Responders/Group Total (n = 8) (cutoff OD 1.5 (A450), Day 42) | Responders/Group Total (n = 8) (cutoff OD 1.0 (A450), Day 19) | Responders/Group Total (n = 8) (cutoff OD 1.5 (A450), Day 19) |
| --- | --- | --- | --- | --- | --- | --- | --- | --- | --- | --- | --- | --- | --- | --- | --- | --- |
| DGQEEKAGVVSTGLIGGGVILLNKHIDAYKTF [DerG-NP350] | 8 and 8/8 | 8/8 | 8/8 | 8/8 | 8 and 8/8 | 8/8 | 8/8 | 8/8 | 2/8 | 8/8 | 8/8 | 0/8 | 8/8 | 8/8 |  |  |
| DLLKNGERIEKVEGGGVILLNKHIDAYKTF [J-NP350] |  | 7/8 | 8/8 | 8/8 |  | 7/8 | 8/8 | 8/8 | 0/8 | 8/8 | 8/8 | 0/8 | 2/8 | 6 and 6/8 | 6 and 6/8 | 1/8 |
